Experimental data reported in article PMC12670160, “A drug-repurposing screen of FDA- and EMA-approved drugs identifies two NF-κB inhibitors active against eumycetoma” (Journal of Antimicrobial Chemotherapy, 2025).
≈ marks a conversion by molar mass, not a printed value. Structures can show the parent of a compound that is named as a salt. Where two headings read alike, the source gives them in different places.

Experiments:
M. mycetomatis strain I1 = test: IC50 and MIC determination, CellTiter-Glo, strain I1; type: cell-based, Madurella mycetomatis; conditions: Madurella mycetomatis, I1
M. mycetomatis strain P1 = test: IC50 and MIC determination, CellTiter-Glo, strain P1; type: cell-based, Madurella mycetomatis; conditions: Madurella mycetomatis, P1
[1] = system: M. mycetomatis strain mm55; test: IC50 and MIC determination, CellTiter-Glo, strain mm55; type: cell-based, Madurella mycetomatis; conditions: Madurella mycetomatis; for IC50: concentration inhibiting 50% of fungal hyphae growth; for MIC: concentration with complete growth inhibition
M. mycetomatis = test: In vitro susceptibility, averages over M. mycetomatis isolates (average metabolic activity at 2 µM, mean MIC); type: cell-based; conditions: Madurella mycetomatis, 96 h, 4 days at 37°C, CellTiter-Glo, average of 3 isolates, 20% or below = inhibition
Protocol: M. mycetomatis isolate MM55 was used to screen the Oncode library. This strain was kindly provided by Prof. […] The three M. mycetomatis isolates were identified by ITS sequencing and maintained at −80°C at Erasmus MC. Prior to in vitro screening, isolates were cultured on Sabouraud agar plates (BD, Erembodegem, Belgium) at 37°C.
The Oncode Drug Repurposing library was based on the drug repurposing library from the Drug Repurposing Hub of the Broad Institute and recreated by the Oncode institute.[13] […] Each well of the 384-well plates contained 0.6 µL of a 200 µM stock concentration of compound, resulting in a final concentration of 2 µM when the fungus was added. […] Furthermore, this concentration could also be reached in the G. mellonella larvae.[8],[11] The prepared 384-well plates were transferred on dry ice to the Erasmus MC and stored at −80°C until they were screened.
Each plate also contained a growth control (60 µL of M. mycetomatis hyphal suspension, plus 0.6 µL of DMSO) and a negative control (60 µL of culture medium, plus 0.6 µL of DMSO). Plates were then incubated for 4 days at 37°C, after which 30 µL of CellTiter-Glo 3D Cell Viability reagent was added to every well.[19] After 25 min of incubation at room temperature, the luminescence was measured with a CytoFluor Series 4000 luminometer (PerSeptive Biosystems, Framingham, MA, USA). To determine the metabolic activity, the following formula was used:
Percentagemetabolicactivity=(Absorbancetestluminensence−AbsorbanceNCluminensence/AbsorbanceGCluminensence−AbsorbanceNCluminensence)×100
where, GC is growth control and NC is negative control. The luminescence measured for the GC is considered as 100% metabolic activity. The luminescence for the NC is considered as 0% metabolic activity.

[2] = system: M. mycetomatis strain mm55; conditions: 96 h, 2 µM

Compound	% viability ([2]; m. mycetomatis hyphae)	other results
Clc1ccc(C(Cn2ccnc2)OCc2c(Cl)cccc2Cl)c(Cl)c1 (centres unmarked) [Isoconazole nitrate (Travogen), Isoconazole nitrate]	–	IC50 (M. mycetomatis strain I1): 0.36 µM; MIC (M. mycetomatis strain I1): 0.5 µM; IC50 (M. mycetomatis strain P1): 0.06 µM; MIC (M. mycetomatis strain P1): 0.5 µM; IC50 [1]: 1.42 µM; MIC [1]: 2 µM; activity at 2 µM (M. mycetomatis): 1.2%
Clc1ccc(C(Cn2ccnc2)OCc2ccsc2Cl)c(Cl)c1 (centres unmarked) [Tioconazole]	–	IC50 (M. mycetomatis strain I1): 0.33 µM; MIC (M. mycetomatis strain I1): 0.5 µM (≈ 0.194 µg/mL); IC50 (M. mycetomatis strain P1): 0.39 µM; MIC (M. mycetomatis strain P1): 0.5 µM (≈ 0.194 µg/mL); IC50 [1]: 1.24 µM; MIC [1]: 2 µM (≈ 0.775 µg/mL); activity at 2 µM (M. mycetomatis): 3.2%
CC(C)(C)c1cc(C(C)(C)C)c(NC(=O)c2c[nH]c3ccccc3c2=O)cc1O [ONC0004880, ivacaftor vx770]	126.9%	–
C=C1CCN([C@H](C)[C@](O)(Cn2cncn2)c2ccc(F)cc2F)CC1 [Efinaconazole]	–	IC50 (M. mycetomatis strain I1): 0.05 µM; MIC (M. mycetomatis strain I1): 0.06 µM (≈ 0.0209 µg/mL); IC50 (M. mycetomatis strain P1): < 0.03 µM; MIC (M. mycetomatis strain P1): 0.03 µM (≈ 0.0105 µg/mL); IC50 [1]: 0.04 µM; MIC [1]: 0.06 µM (≈ 0.0209 µg/mL); activity at 2 µM (M. mycetomatis): 0%
CC(C)(O)CNc1nc(Nc2ccnc(C(F)(F)F)c2)nc(-c2cccc(C(F)(F)F)n2)n1 [ONC0001138, enasidenib]	67.01%	–
Cc1ccc(NC(=O)C2(c3ccc4c(c3)OC(F)(F)O4)CC2)nc1-c1cccc(C(=O)O)c1 [ONC0004867, vx809 lumacaftor]	108.5%	–
CCOP(=S)(OCC)Oc1cc(C)nc(C(C)C)n1 [ONC0003874, dimpylate]	60.75%	–
NC(=O)c1ccc(N(C(N)=O)c2c(F)cccc2F)nc1-c1ccc(F)cc1F [ONC0004787, vx702]	67.05%	–
COC(=O)[C@@H]1C[C@H](OC(C)=O)C(=O)[C@H]2[C@@]1(C)CC[C@H]1C(=O)O[C@H](c3ccoc3)C[C@]21C [ONC0003459, salvinorin a]	35.37%	–
Clc1ccc(COC(Cn2ccnc2)c2ccc(Cl)cc2Cl)c(Cl)c1 (centres unmarked) [Miconazole nitrate]	–	MIC (M. mycetomatis strain I1): 0.06 µM; MIC (M. mycetomatis strain P1): 0.5 µM; MIC [1]: 1 µM; activity at 2 µM (M. mycetomatis): 1%
O=C(Nc1nc2cccc(-c3ccc(CN4CCS(=O)(=O)CC4)cc3)n2n1)C1CC1 [ONC0001023, filgotinib]	70.26%	–
C[N+]12CCC(CC1)C(OC(=O)C(O)(c1ccccc1)c1ccccc1)C2 (centres unmarked) [ONC0000315, clidinium bromide]	88.97%	–
CC[C@@](C)(Nc1ccnc(-c2c[nH]c3ncccc23)n1)C(=O)NCC(F)(F)F [ONC0001022, decernotinib]	66.72%	–
CC1(C)CN(C(=O)c2ccc(-c3cccc4nc(NC(=O)C5CC5)nn34)cc2)C1 [ONC0001278, solcitinib]	60.54%	–
O=C(O)C[C@H]1CC[C@H](c2ccc(-c3ccc(Nc4ccc(C(F)(F)F)nc4)cn3)cc2)CC1 [ONC0001945, pradigastat]	103.8%	–
CCC[C@H](NC(=O)[C@@H]1[C@H]2CCC[C@H]2CN1C(=O)[C@@H](NC(=O)[C@@H](NC(=O)c1cnccn1)C1CCCCC1)C(C)(C)C)C(=O)C(=O)NC1CC1 [ONC0004652, telaprevir vx950]	71.4%	–
COc1cc2c(c(OC)c1OC)-c1ccc(OC)c(=O)cc1[C@@H](NC(C)=O)CC2 [ONC0000317, colchicine]	73.45%	–
Cc1cnc(Nc2ccc(F)cc2Cl)nc1-c1c[nH]c(C(=O)N[C@H](CO)c2cccc(Cl)c2)c1 [ONC0005411, vx11e]	117%	–
Cn1c(=O)n(-c2ccc(C(C)(C)C#N)cc2)c2c3cc(-c4cnc5ccccc5c4)ccc3ncc21 [ONC0005249, dactolisib bez235 nvpbez235]	133.4%	–
O=P1(N(CCCl)CCCl)NCCCO1 (centres unmarked) [ONC0000336, cyclophosphamide]	62%	–
O=c1ncn2nc(Sc3ccc(F)cc3F)ccc2c1-c1c(Cl)cccc1Cl [ONC0004865, vx745]	118.9%	–
c1ccc2oc(C3=NCCN3)cc2c1 [ONC0002719, 2bfi]	76.35%	–
CCN(CC)C(C)C(=O)c1ccccc1 (centres unmarked) [ONC0002292, amfepramone]	71.71%	–
CCC1/C=C(\C)CC(C)CC(OC)C2OC(O)(C(=O)C(=O)N3CCCCC3C(=O)OC(/C(C)=C/C3CCC(O)C(OC)C3)C(C)C(O)CC1=O)C(C)CC2OC (centres unmarked) [ONC0004338, ascomycin fk520]	150.4%	–

Compound	% viability ([2]; m. mycetomatis hyphae)	other results
COc1cccc([C@]2(O)CCCC[C@H]2CN(C)C)c1 [ONC0004178, tramadol hydrochloride]	135.3%	–
O=C(O)[C@]1(Cc2cccc(Nc3nccs3)n2)CC[C@@H](Oc2cccc(Cl)c2F)CC1 [ONC0005246, mk5108 vx689]	132.5%	–
CC(C)NCCCn1c(Sc2cc3c(cc2I)OCO3)nc2c(N)ncnc21 [ONC0002276, puh71]	67.16%	–
Cc1sc2c(c1C)C(c1ccc(Cl)cc1)=N[C@@H](CC(=O)Nc1ccc(O)cc1)c1nnc(C)n1-2 [ONC0005184, otx015]	99.78%	–
COc1cc(NC(=O)Nc2cccc(CNC(=O)O[C@H]3CCOC3)c2)ccc1-c1cnco1 [ONC0001842, merimepodib]	78.29%	–
CC(C)(CO)c1cc2cc(NC(=O)C3(c4ccc5c(c4)OC(F)(F)O5)CC3)c(F)cc2n1C[C@@H](O)CO [ONC0004399, vx661]	112.4%	–
CC(C)(C)C#Cc1cc(N(C(=O)[C@H]2CC[C@H](C)CC2)[C@H]2CC[C@@H](O)CC2)c(C(=O)O)s1 [ONC0004853, lomibuvir vx222 vch222]	92.92%	–
CNCc1ccc(-c2cc(-c3nc(-c4ccc(S(=O)(=O)C(C)C)cc4)cnc3N)on2)cc1 [ONC0005048, ve822]	77.72%	–
CS[C@H]1SC[C@H]2C(=O)N(C)[C@@H](C(C)C)C(=O)OC[C@@H](NC(=O)c3cnc4ccccc4n3)C(=O)N[C@@H](C)C(=O)N(C)[C@@H]1C(=O)N(C)[C@@H](C(C)C)C(=O)OC[C@@H](NC(=O)c1cnc3ccccc3n1)C(=O)N[C@@H](C)C(=O)N2C [ONC0004195, echinomycin]	114.7%	–
Clc1ccccc1C(c1ccccc1)(c1ccccc1)n1ccnc1 [Clotrimazole]	–	MIC (M. mycetomatis strain I1): 0.5 µM (≈ 0.172 µg/mL); MIC (M. mycetomatis strain P1): 1 µM (≈ 0.345 µg/mL); MIC [1]: 1 µM (≈ 0.345 µg/mL); activity at 2 µM (M. mycetomatis): 4%
CC(C)OC(=O)C(C)NP(=O)(COC(C)Cn1cnc2c(N)ncnc21)Oc1ccccc1 (centres unmarked) [ONC0004548, tenofovir alafenamide gs7340]	45.02%	–
gonadorelin acetate [ONC0002245]	–	% viability ([2]; primary screen, metabolic activity vs growth control, inhibitor): 141.9%
CC[C@@]1(O)C(=O)OCc2c1cc1n(c2=O)Cc2cc3cc(O)ccc3nc2-1 [ONC0005199, 10hydroxycamptothecin]	143.5%	–
O=C(O)CCCc1ccc(N(CCCl)CCCl)cc1 [ONC0000730, chlorambucil]	84.26%	–
CC(C)CN(C[C@@H](O)[C@H](Cc1ccccc1)NC(=O)O[C@H]1CCOC1)S(=O)(=O)c1ccc(N)cc1 [ONC0003406, amprenavir]	51.58%	–
CCC(=O)O[C@@H]1CC(=O)O[C@H](C)C/C=C/C=C/[C@H](O)[C@H](C)C[C@H](CC=O)[C@H](O[C@@H]2O[C@H](C)[C@@H](O[C@H]3C[C@@](C)(O)[C@@H](OC(=O)CC)[C@H](C)O3)[C@H](N(C)C)[C@H]2O)[C@H]1OC [ONC0000323, midecamycin]	88.92%	–
CC(=O)Oc1ccccc1C(=O)Nc1ncc([N+](=O)[O-])s1 [ONC0002436, nitazoxanide]	87.75%	–
CCO[C@H]1OC(=O)C[C@@H]1NC(=O)[C@@H]1CCCN1C(=O)[C@@H](NC(=O)c1ccc(N)c(Cl)c1)C(C)(C)C [ONC0004605, belnacasan vx765]	74.26%	–
COc1ccc2c(O[C@@H]3C[C@H]4C(=O)N[C@]5(C(=O)NS(=O)(=O)C6CC6)C[C@H]5/C=C\CCCCN(C)C(=O)[C@@H]4C3)cc(-c3nc(C(C)C)cs3)nc2c1C [ONC0000991, simeprevir]	85.85%	–
CC[C@H]1OC(=O)[C@H](C)[C@@H](O[C@H]2C[C@@](C)(OC)[C@@H](O)[C@H](C)O2)[C@H](C)[C@@H](O[C@@H]2O[C@H](C)C[C@H](N(C)C)[C@H]2O)[C@](C)(O)C[C@@H](C)[C@@H]2N[C@@H](COCCOC)O[C@H]([C@H]2C)[C@]1(C)O [ONC0005551, dirithromycin]	98.9%	–
CC(C)(C)c1ccc(-c2nc3ccccc3[nH]2)cc1 [ONC0004834, zln005]	87.04%	–
CCCC(C)C1(CC)C(=O)NC(=S)NC1=O (centres unmarked) [ONC0001983, thiopental]	75.11%	–
Cc1cc(Nc2cc(N3CCN(C)CC3)nc(Sc3ccc(NC(=O)C4CC4)cc3)n2)[nH]n1 [ONC0004696, vx680 mk0457 tozasertib]	120.2%	–
